Source: US8192962B2, “Processes for detecting toxic substances” (Daikin Industries, Ltd., priority 2001, dated 2012)

Tested on: Metabolism protein genes
Test: DNA chip mRNA expression in yeast, metabolism protein genes (Table 7)
Type: cell-based, Saccharomyces cerevisiae S288C
Method: Yeast (Saccharomyces cerevisiae S288C (α SUC2mal mel gap2 CUP1)) were incubated at 25° C. on YPD medium (yeast extract 1%, polypepton 2%, glucose 2%). One of toxic chemical substances was added to the cells at logarithmic growth phase, and the cells were further incubated for two hours. Cells were cultured without any chemical substance in the same condition, and were used as control. Concentrations of the chemical substances were defined to inhibit the growth of the yeast but not lead to death.
After completion of the incubation, the culture was centrifuged to collect the cells. To the cells, sodium acetate buffer (50 mM sodium acetate, 10 mM EDTA, 1% SDS) was added, and the mixture was shaken at 65° C. for five minutes, followed by returning to room temperature, and obtaining the supernatant, of which the procedures were repeated two times. To the supernatant, ½ amount of a solution of phenol/chloroform was added, and the mixture was centrifuged to give a supernatant, which was added with an equal amount of chloroform, and the mixture was centrifuged to give a supernatant. To the supernatant, an equal amount of isopropanol containing 0.3 M sodium acetate was added, and the mixture was allowed to stand at room temperature for 30 minutes, after which the mixture was centrifuged to give a sediment of the whole RNAs. Seventy % ethanol was added to the sediment, and the mixture was again centrifuged to give a sediment, which was then dried and dissolved in water. mRNA was isolated from the whole RNAs as followings. In view of the fact that a poly A chain is attached to the 3′ terminus of mRNA, a polynucleotide having a poly T structure which was immobilized on the surface of latex beads was used to trap the mRNA, and then the mRNA was washed and eluted with spine column (Oligotex-dT30<Super>mRNA Purification Kit, Takara). Reverse transcription of the mRNA was conducted with a reverse transcriptase (Super Script II Reverse Transcriptase; catalogue No. 18064-014, GibcoBRL) using fluorescence-labeled nucleotides to give cDNAs that were introduced with Cy3-dUTP or Cy5-dUTP during the reverse transcription.
The labeled cDNAs were dissolved in TE buffer (10mM Tris-HCl/1 mM EDTA, pH8.0), and the solution was dropped on the DNA chip containing the whole genes of yeast (DNA Chip Research Inc. Japan) so that the cDNAs were hybridized on the DNA chip at 65° C. for over 12 hours. The fluoresces intensity of the DNA chip was read with a scanner, and the ratio relative to the fluorescence intensity resulting from the absence of chemical substance was estimated as the following, which is shown in Tables 1 to 9: […]

CCCCCCCCCCCCOS(=O)(=O)[O-].[Na+] [(18), sodium lauryl sulfate]
The level of expressed mRNA in the presence of chemical substance/The level of expressed mRNA in the absence of chemical substance (yeast gene YFR047C): 1.6
level of expressed mRNA in the presence/in the absence of chemical substance (yeast gene YGL012W): 1.1
The level of expressed mRNA in the presence of chemical substance/The level of expressed mRNA in the absence of chemical substance (yeast gene YGL022W): 0.7
level of expressed mRNA in the presence/in the absence of chemical substance (yeast gene YGL115W): 1.2
The level of expressed mRNA in the presence of chemical substance/The level of expressed mRNA in the absence of chemical substance (yeast gene YGL126W): 0.9
level of expressed mRNA in the presence/in the absence of chemical substance (yeast gene YGL205W): 9.1
The level of expressed mRNA in the presence of chemical substance/The level of expressed mRNA in the absence of chemical substance (yeast gene YGL209W): 1.5
The level of expressed mRNA in the presence of chemical substance/The level of expressed mRNA in the absence of chemical substance (yeast gene YGL248W): 1.2
The level of expressed mRNA in the presence of chemical substance/The level of expressed mRNA in the absence of chemical substance (yeast gene YGR037C): 2.0
The level of expressed mRNA in the presence of chemical substance/The level of expressed mRNA in the absence of chemical substance (yeast gene YGR055W): 0.7
level of expressed mRNA in the presence/in the absence of chemical substance (yeast gene YGR096W): 1.0
level of expressed mRNA in the presence/in the absence of chemical substance (yeast gene YGR191W): 0.8
The level of expressed mRNA in the presence of chemical substance/The level of expressed mRNA in the absence of chemical substance (yeast gene YGR194C): 2.0
level of expressed mRNA in the presence/in the absence of chemical substance (yeast gene YGR204W): 0.7
The level of expressed mRNA in the presence of chemical substance/The level of expressed mRNA in the absence of chemical substance (yeast gene YGR256W): 0.8
The level of expressed mRNA in the presence of chemical substance/The level of expressed mRNA in the absence of chemical substance (yeast gene YGR282C): 1.5
level of expressed mRNA in the presence/in the absence of chemical substance (yeast gene YGR288W): 1.3
level of expressed mRNA in the presence/in the absence of chemical substance (yeast gene YHR025W): 0.6
The level of expressed mRNA in the presence of chemical substance/The level of expressed mRNA in the absence of chemical substance (yeast gene YHR111W): 1.2
level of expressed mRNA in the presence/in the absence of chemical substance (yeast gene YHR123W): 1.0
The level of expressed mRNA in the presence of chemical substance/The level of expressed mRNA in the absence of chemical substance (yeast gene YHR137W): 1.3
The level of expressed mRNA in the presence of chemical substance/The level of expressed mRNA in the absence of chemical substance (yeast gene YHR174W): 1.2
The level of expressed mRNA in the presence of chemical substance/The level of expressed mRNA in the absence of chemical substance (yeast gene YHR176W): 1.6
level of expressed mRNA in the presence/in the absence of chemical substance (yeast gene YHR210C): 1.2
level of expressed mRNA in the presence/in the absence of chemical substance (yeast gene YIL006W): 0.9
The level of expressed mRNA in the presence of chemical substance/The level of expressed mRNA in the absence of chemical substance (yeast gene YIL045W): 1.8
The level of expressed mRNA in the presence of chemical substance/The level of expressed mRNA in the absence of chemical substance (yeast gene YIL107C): 2.0
The level of expressed mRNA in the presence of chemical substance/The level of expressed mRNA in the absence of chemical substance (yeast gene YIL154C): 1.0
The level of expressed mRNA in the presence of chemical substance/The level of expressed mRNA in the absence of chemical substance (yeast gene YIL155C): 1.4
The level of expressed mRNA in the presence of chemical substance/The level of expressed mRNA in the absence of chemical substance (yeast gene YIL167W): 0.8
The level of expressed mRNA in the presence of chemical substance/The level of expressed mRNA in the absence of chemical substance (yeast gene YIR034C): 1.0
The level of expressed mRNA in the presence of chemical substance/The level of expressed mRNA in the absence of chemical substance (yeast gene YIR036C): 1.3
The level of expressed mRNA in the presence of chemical substance/The level of expressed mRNA in the absence of chemical substance (yeast gene YJL031C): 1.9
The level of expressed mRNA in the presence of chemical substance/The level of expressed mRNA in the absence of chemical substance (yeast gene YJL068C): 1.5
The level of expressed mRNA in the presence of chemical substance/The level of expressed mRNA in the absence of chemical substance (yeast gene YJL088W): 0.9
The level of expressed mRNA in the presence of chemical substance/The level of expressed mRNA in the absence of chemical substance (yeast gene YJL099W): 1.6
level of expressed mRNA in the presence/in the absence of chemical substance (yeast gene YJL121C): 1.0
The level of expressed mRNA in the presence of chemical substance/The level of expressed mRNA in the absence of chemical substance (yeast gene YJL155C): 3.1
level of expressed mRNA in the presence/in the absence of chemical substance (yeast gene YJL167W): 2.1
The level of expressed mRNA in the presence of chemical substance/The level of expressed mRNA in the absence of chemical substance (yeast gene YJL172W): 1.8
level of expressed mRNA in the presence/in the absence of chemical substance (yeast gene YJL216C): 2.0
The level of expressed mRNA in the presence of chemical substance/The level of expressed mRNA in the absence of chemical substance (yeast gene YJL219W): 1.2
level of expressed mRNA in the presence/in the absence of chemical substance (yeast gene YJR077C): 0.8
The level of expressed mRNA in the presence of chemical substance/The level of expressed mRNA in the absence of chemical substance (yeast gene YJR137C): 0.8
level of expressed mRNA in the presence/in the absence of chemical substance (yeast gene YJR143C): 0.8
The level of expressed mRNA in the presence of chemical substance/The level of expressed mRNA in the absence of chemical substance (yeast gene YJR148W): 1.7
The level of expressed mRNA in the presence of chemical substance/The level of expressed mRNA in the absence of chemical substance (yeast gene YJR155W): 1.4
